Two compounds from patent US20190263796A1, “LIM KINASE INHIBITORS, PHARMACEUTICAL COMPOSITION AND METHOD OF USE IN LIMK-MEDIATED DISEASES” (CELLIPSE, priority 2016, published 2019) can be followed below.

One experiment deals with T1, Aurora-A(h) (Homo sapiens, UniProt O14965).
T1 construct: purchased Merck-Millipore (KinaseProfiler panel service)
Put plainly: KinaseProfiler panel: Aurora-A(h). It is filed as biochemical. Conditions: residual activity, 5 μM inhibitor, Km ATP. The protocol: (§1) Kinase selectivity was performed on a panel of 58 recombinant protein kinases. The assays were performed in the presence of 5 μM inhibitor at the respective Km ATP for each kinase, using the KinaseProfiler panel service (Merck-Millipore). Residual activity measured in the presence of […] inhibitor is expressed as the percent of activity determined in the absence of inhibitor.

In the next experiment the target is T2, CaMKIβ(h) (Homo sapiens, UniProt Q6P2M8).
T2 construct: purchased Merck-Millipore (KinaseProfiler panel service)
T2 sequence (Q6P2M8 whole entry): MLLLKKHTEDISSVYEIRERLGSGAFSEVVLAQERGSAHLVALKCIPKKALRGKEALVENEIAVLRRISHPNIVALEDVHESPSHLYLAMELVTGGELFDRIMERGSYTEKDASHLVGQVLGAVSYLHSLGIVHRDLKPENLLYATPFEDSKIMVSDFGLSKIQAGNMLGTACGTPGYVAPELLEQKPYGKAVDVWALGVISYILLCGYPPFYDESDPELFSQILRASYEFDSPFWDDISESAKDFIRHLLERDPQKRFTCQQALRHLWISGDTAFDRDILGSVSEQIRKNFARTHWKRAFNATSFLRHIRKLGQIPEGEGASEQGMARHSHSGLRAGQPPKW
Kind of experiment: KinaseProfiler panel: CaMKIβ(h). It is filed as biochemical. Conditions: residual activity, 5 μM inhibitor, Km ATP. How it is done: as §1

A further experiment concerns the target T3, cKit(D816V)(h) (Homo sapiens, UniProt P10721, D816V).
T3 construct: purchased Merck-Millipore (KinaseProfiler panel service)
Put plainly: KinaseProfiler panel: cKit(D816V)(h). It is filed as biochemical. Conditions: residual activity, 5 μM inhibitor, Km ATP. The protocol:
as §1

In the next experiment the target is T4, Flt1(h) (Homo sapiens, UniProt P17948).
T4 construct: purchased Merck-Millipore (KinaseProfiler panel service)
Kind of experiment: KinaseProfiler panel: Flt1(h). The experiment is classed as biochemical. The note with it: residual activity, 5 μM inhibitor, Km ATP. The protocol: as §1

The target in another experiment is T5, Flt4(h) (Homo sapiens, UniProt P35916).
T5 construct: purchased Merck-Millipore (KinaseProfiler panel service)
T5 sequence (P35916 25-1363): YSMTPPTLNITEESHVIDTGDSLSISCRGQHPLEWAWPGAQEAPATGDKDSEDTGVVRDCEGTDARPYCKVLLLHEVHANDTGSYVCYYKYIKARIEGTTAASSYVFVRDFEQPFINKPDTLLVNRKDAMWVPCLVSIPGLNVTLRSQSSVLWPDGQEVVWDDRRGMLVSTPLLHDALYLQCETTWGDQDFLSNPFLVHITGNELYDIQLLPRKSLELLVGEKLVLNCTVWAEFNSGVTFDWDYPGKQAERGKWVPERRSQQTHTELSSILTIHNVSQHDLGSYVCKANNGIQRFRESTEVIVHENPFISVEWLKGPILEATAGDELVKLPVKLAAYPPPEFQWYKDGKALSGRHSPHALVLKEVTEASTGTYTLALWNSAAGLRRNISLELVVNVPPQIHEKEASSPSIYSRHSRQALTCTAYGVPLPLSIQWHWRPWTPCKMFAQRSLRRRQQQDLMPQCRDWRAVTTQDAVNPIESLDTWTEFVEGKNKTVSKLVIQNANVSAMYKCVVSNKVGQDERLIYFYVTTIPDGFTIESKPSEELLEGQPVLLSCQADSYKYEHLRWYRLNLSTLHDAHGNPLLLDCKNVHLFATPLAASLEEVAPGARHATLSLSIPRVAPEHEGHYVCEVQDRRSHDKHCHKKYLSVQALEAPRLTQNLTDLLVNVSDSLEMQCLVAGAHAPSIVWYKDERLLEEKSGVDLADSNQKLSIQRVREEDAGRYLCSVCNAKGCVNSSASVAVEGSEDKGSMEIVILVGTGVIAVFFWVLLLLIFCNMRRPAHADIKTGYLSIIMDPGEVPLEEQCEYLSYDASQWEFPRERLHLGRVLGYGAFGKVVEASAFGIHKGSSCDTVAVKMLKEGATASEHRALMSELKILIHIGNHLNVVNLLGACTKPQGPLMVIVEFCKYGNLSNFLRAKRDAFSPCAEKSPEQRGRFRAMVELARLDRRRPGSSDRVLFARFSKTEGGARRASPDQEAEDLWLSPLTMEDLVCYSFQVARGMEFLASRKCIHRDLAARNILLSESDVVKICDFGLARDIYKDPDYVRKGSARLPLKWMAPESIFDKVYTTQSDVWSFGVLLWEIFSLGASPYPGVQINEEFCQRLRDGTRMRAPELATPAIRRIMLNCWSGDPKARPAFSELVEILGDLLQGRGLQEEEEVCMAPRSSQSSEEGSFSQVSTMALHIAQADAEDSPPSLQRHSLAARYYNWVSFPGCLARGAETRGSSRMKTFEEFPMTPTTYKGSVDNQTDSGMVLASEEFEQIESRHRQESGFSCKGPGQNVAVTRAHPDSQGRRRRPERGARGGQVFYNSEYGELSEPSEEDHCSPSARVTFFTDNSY
Kind of experiment: KinaseProfiler panel: Flt4(h). It is filed as biochemical. Conditions: residual activity, 5 μM inhibitor, Km ATP. How it is done: as §1

The target of a further experiment is T6, GSK3β(h) (Homo sapiens, UniProt P49841).
T6 construct: purchased Merck-Millipore (KinaseProfiler panel service)
T6 sequence (P49841 whole entry): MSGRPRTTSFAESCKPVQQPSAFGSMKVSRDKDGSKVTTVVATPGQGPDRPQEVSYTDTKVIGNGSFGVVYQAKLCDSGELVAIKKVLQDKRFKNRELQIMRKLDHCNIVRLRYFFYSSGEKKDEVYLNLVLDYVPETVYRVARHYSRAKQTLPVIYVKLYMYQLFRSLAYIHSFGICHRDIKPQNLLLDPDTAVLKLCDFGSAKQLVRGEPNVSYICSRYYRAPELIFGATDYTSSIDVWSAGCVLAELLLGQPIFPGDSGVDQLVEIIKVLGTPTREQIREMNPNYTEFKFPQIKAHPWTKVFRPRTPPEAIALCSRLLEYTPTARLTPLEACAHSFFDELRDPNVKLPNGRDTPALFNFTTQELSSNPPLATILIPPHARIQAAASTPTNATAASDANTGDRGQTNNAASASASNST
Put plainly: KinaseProfiler panel: GSK3β(h). The experiment is classed as biochemical. The note with it: residual activity, 5 μM inhibitor, Km ATP. How it is done: as §1

In a further experiment the target is T7, JAK2(h) (Homo sapiens, UniProt O60674).
T7 construct: purchased Merck-Millipore (KinaseProfiler panel service)
Kind of experiment: KinaseProfiler panel: JAK2(h). It is filed as biochemical. Conditions: residual activity, 5 μM inhibitor, Km ATP. How it is done:
as §1

In the next experiment the target is T8, MRCKβ(h) (Homo sapiens, UniProt Q9Y5S2).
T8 construct: purchased Merck-Millipore (KinaseProfiler panel service)
T8 sequence (Q9Y5S2 whole entry): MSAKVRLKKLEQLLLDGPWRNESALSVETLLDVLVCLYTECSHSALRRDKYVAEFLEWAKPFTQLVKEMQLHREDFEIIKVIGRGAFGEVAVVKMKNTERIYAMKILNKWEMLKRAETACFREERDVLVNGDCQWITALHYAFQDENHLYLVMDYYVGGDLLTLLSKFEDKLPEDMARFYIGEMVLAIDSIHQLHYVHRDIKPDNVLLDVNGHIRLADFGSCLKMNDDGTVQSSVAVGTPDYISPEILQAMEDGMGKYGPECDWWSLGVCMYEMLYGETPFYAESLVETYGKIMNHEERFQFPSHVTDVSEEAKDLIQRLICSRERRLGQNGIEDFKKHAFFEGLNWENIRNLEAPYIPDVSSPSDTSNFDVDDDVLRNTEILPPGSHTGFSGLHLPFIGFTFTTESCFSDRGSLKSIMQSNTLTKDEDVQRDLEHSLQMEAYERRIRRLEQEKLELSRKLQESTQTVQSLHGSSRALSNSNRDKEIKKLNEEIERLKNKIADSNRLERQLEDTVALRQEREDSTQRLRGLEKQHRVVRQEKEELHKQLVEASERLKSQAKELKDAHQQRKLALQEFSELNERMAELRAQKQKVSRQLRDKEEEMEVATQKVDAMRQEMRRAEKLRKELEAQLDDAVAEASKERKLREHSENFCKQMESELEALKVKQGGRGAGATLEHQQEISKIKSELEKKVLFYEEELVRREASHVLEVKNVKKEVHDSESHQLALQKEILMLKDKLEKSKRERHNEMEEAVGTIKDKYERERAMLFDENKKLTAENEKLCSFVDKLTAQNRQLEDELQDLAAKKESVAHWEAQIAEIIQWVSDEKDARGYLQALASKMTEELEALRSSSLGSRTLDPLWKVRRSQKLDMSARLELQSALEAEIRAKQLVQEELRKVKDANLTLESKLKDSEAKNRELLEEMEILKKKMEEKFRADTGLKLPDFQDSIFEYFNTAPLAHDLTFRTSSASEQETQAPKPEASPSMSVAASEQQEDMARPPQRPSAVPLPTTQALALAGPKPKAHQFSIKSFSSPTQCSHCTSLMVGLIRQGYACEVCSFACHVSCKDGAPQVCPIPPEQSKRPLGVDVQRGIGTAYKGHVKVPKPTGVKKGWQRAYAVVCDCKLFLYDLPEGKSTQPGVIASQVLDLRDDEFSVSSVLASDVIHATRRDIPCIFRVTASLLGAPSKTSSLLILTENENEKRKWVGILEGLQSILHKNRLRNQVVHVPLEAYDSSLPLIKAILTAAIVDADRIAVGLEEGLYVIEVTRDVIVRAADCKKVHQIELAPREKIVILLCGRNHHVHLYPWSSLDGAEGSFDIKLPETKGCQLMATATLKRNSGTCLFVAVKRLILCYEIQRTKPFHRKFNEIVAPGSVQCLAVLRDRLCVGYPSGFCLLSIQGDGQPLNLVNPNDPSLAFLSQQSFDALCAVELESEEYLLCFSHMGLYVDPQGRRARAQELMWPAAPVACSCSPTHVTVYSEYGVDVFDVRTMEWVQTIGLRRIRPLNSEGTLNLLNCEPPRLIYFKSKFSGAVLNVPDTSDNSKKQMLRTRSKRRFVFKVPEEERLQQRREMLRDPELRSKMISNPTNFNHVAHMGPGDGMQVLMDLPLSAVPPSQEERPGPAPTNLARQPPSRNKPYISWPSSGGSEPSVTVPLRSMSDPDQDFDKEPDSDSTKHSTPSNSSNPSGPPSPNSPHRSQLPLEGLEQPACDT
Kind of experiment: KinaseProfiler panel: MRCKβ(h). It is filed as biochemical. The note with it: residual activity, 5 μM inhibitor, Km ATP. The protocol: as §1

A further experiment concerns the target T9, p70S6K(h) (Homo sapiens, UniProt P23443).
T9 construct: purchased Merck-Millipore (KinaseProfiler panel service)
Kind of experiment: KinaseProfiler panel: p70S6K(h). The note with it: residual activity, 5 μM inhibitor, Km ATP. It is filed as biochemical. The protocol:
as §1

For the next experiment, the target named is T10, PAK1(h) (Homo sapiens, UniProt Q13153).
T10 construct: purchased Merck-Millipore (KinaseProfiler panel service)
Put plainly: KinaseProfiler panel: PAK1(h). It is filed as biochemical. The note with it: residual activity, 5 μM inhibitor, Km ATP. How it is done:
as §1

The target in another experiment is T11, PDGFRα(h) (Homo sapiens, UniProt P16234).
T11 construct: purchased Merck-Millipore (KinaseProfiler panel service)
T11 sequence (P16234 24-1089): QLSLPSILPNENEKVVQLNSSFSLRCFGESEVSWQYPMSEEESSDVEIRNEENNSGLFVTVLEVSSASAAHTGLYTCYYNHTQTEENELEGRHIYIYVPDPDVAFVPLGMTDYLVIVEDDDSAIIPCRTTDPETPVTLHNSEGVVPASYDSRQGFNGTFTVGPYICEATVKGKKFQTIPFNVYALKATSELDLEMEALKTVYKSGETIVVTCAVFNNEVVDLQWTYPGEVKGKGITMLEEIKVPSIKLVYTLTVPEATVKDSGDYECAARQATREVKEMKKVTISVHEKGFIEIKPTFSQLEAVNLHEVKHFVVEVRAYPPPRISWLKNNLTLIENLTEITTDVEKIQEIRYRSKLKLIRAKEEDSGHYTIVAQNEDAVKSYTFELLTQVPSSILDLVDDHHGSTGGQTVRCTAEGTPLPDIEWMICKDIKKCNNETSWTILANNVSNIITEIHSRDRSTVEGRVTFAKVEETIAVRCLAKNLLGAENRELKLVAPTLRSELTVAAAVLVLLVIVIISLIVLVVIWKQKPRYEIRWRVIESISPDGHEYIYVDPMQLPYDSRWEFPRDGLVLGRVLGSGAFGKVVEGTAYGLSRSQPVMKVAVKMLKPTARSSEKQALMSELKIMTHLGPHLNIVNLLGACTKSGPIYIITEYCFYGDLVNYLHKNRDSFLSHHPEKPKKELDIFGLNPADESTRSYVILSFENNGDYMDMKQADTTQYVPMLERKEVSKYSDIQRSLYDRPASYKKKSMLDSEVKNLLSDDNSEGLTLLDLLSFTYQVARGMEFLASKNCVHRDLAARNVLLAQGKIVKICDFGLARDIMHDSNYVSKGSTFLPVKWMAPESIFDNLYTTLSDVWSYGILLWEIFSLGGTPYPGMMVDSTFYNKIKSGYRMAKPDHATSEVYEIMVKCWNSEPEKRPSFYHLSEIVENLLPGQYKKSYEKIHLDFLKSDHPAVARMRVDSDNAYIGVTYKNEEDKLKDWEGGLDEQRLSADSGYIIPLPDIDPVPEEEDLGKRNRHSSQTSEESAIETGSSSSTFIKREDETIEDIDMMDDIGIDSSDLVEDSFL
Put plainly: KinaseProfiler panel: PDGFRα(h). Conditions: residual activity, 5 μM inhibitor, Km ATP. It is filed as biochemical. How it is done:
as §1

In another experiment the target is T12, Src(1-530)(h) (Homo sapiens, UniProt P12931).
T12 construct: Src(1-530)(h); purchased Merck-Millipore (KinaseProfiler panel service)
Kind of experiment: KinaseProfiler panel: Src(1-530)(h). It is filed as biochemical. The note with it: residual activity, 5 μM inhibitor, Km ATP. How it is done: as §1

The test system of experiment [1] is Phospho-Ser3-Cofilin/Total Cofilin. Kind of experiment: Western blot cofilin phosphorylation, Kasumi-1. The experiment is classed as cell-based. The note with it: Homo sapiens; Kasumi-1 cells; 2 h. The protocol: Kasumi-1 cell line was originally purchased from the American Type Culture Collection (ATCC). Kasumi-1 cells are cultured in RPMI 1640 20% (v/v) FBS supplemented with 100 U/mL^−1 penicillin, 0.1 mg·mL^−1 streptomycin (PAN Biotech P06-07100). Cells were maintained at 37° C. with 5% CO2.
In a 6 wells plate (Falcon 353046), 2·10^6 cells in 1.5 mL medium are treated for 2 h with compounds. Cells are then collected and cell lysis is performed at 4° C. using RIPA buffer supplemented with protease inhibitors cocktail (Sigma-Aldrich P8340) and phosphatase inhibitors cocktail (Sigma-Aldrich P5726). Following centrifugation 30 min 15000 g 4° C., supernatants are mixed with Laemmli buffer and denaturation is performed by heating 5 min 95° C. 10 μL of samples are subjected to electrophoresis on 15% SDS-PAGE. After electro-transfer (Mini Transblot, Bio-Rad), the PVDF membrane (Merck-Millipore Immobilon P IPVH00010) is blocked with Tris Buffered Saline, pH 7.4 (TBS) with 0.1% Tween 20 and 5% BSA for 1 h RT under agitation. […] For each concentration of compound, ratio between phosphorylated cofilin and total cofilin is determined. This ratio is then expressed as percentage of control ratio (i.e., ratio from DMSO treated cells). IC50 Phospho-Ser3-Cofilin/Total Cofilin is then determined.
(In general: A western blot detects proteins with antibodies after separation by electrophoresis.)

A further experiment deals with P-MEK/Total MEK. Kind of experiment: Western blot MEK1 phosphorylation, Kasumi-1. The experiment is classed as cell-based. Conditions: Kasumi-1 cells. The protocol: Cells were maintained at 37° C. with 5% CO2.
In a 6 wells plate (Falcon 353046), 2·10^6 cells in 1.5 mL medium are treated for 2 h with compounds. Cells are then collected and cell lysis is performed at 4° C. using RIPA buffer supplemented with protease inhibitors cocktail (Sigma-Aldrich P8340) and phosphatase inhibitors cocktail (Sigma-Aldrich P5726). Following centrifugation 30 min 15000 g 4° C., supernatants are mixed with Laemmli buffer and denaturation is performed by heating 5 min 95° C. 10 μL of samples are subjected to electrophoresis on 15% SDS-PAGE. After electro-transfer (Mini Transblot, Bio-Rad), the PVDF membrane (Merck-Millipore Immobilon P IPVH00010) is blocked with Tris Buffered Saline, pH 7.4 (TBS) with 0.1% Tween 20 and 5% BSA for 1 h at room temperature under agitation. The membrane was rinsed 3 times 10 min at room temperature under agitation with TBS, 0.1% Tween-20 (TBST) and then 1 h at room temperature with anti-phospho-Ser218/222-MEK1 (Merck-Millipore 07-461, 1/1000 dilution) antibody or anti-MEK1 (Merck-Millipore 07-641, 1/1000 dilution) diluted in TBS, 0.1% Tween 20 and 1% BSA. The membrane is then rinsed 3 times 10 min RT under agitation in TBST and incubated for 1 h with anti-rabbit secondary antibody, horseradish peroxidase conjugated (Jackson Immunoresearch #711-036-152) under agitation at room temperature. After three washes 10 min at room temperature in TBST, the detection of total or phosphorylated cofilin was performed using chemiluminescence kit ECL™ Plus (GE Healthcare RPN2132). For each concentration of compound, ratio between phosphorylated cofilin and total cofilin is determined. This ratio is then expressed as percentage of control ratio (i.e., ratio from DMSO treated cells). IC50 P-MEK/Total MEK is then determined.
Selectivity ratios are calculated by dividing the IC50 P-MEK/Total MEK value (μM) by the IC50 Phospho-Ser3-Cofilin/Total Cofilin value (μM).

Molecules are shown by their SMILES.

For `CC(C)(C)c1nc(-c2cccc(NS(=O)(=O)c3c(F)cccc3F)c2F)c(-c2ccnc(Nc3ccccc3)n2)s1` [Compound 1, N-(3-(2-(tert-butyl)-5-(2-(phenylamino)pyrimidin-4-yl)thiazol-4-yl)-2-fluorophenyl)-2,6-difluorobenzenesulfonamide], the activity at 5 µM was ≥ 50% on Aurora-A(h); ≥ 50% on CaMKIβ(h); ≥ 50% at cKit(D816V)(h); 10 to 50% on Flt1(h); 3 to 10% on Flt4(h); ≥ 50% on GSK3β(h). Besides, the activity at 5 µM on JAK2(h) is ≥ 50%; on MRCKβ(h) it was ≥ 50%; on p70S6K(h), ≥ 50%; at PAK1(h) it was ≥ 50%; at PDGFRα(h) it was ≥ 50%; at Src(1-530)(h) it was 3 to 10%.

Consider `O=S(=O)(Nc1cccc(-c2nc(CCO)sc2-c2ccnc(Nc3ccccc3)n2)c1F)c1c(F)cccc1F` [8 (Na)], for which the IC50 in [1] is < 200 nM; with P-MEK/Total MEK (Homo sapiens, 2 h, read-out: IC50 P-MEK/Total MEK) it was > 1000 nM. In the experiment with P-MEK/Total MEK (IC50 P-MEK/Total MEK divided by IC50 Phospho-Ser3-Cofilin/Total Cofilin), the Selectivity ratio is on record as 10.
